In patent US7211116B2, “Hair dye composition” (Kao Corporation, priority 2001, dated 2007):

Assay: Measurement of hydrogen peroxide remaining ratio in a virtual hair bleach composition (Cu, ammonia, H2O2; iodometric titration)
Settings: 20.0 mg compound, aqueous Cu solution, stirred 10 minutes at 30° C.
Experimental: The first requirement is a remaining ratio of hydrogen peroxide. The remaining ratio of hydrogen peroxide is determined by measuring the remaining amount of hydrogen peroxide in a virtual hair bleach composition after a predetermined time. The remaining ratio exceeding a predetermined value allows existence of hydrogen peroxide which can be used for hair bleaching or dyeing and promotes the hair bleaching action. The remaining ratio below a predetermined value, on the other hand, prevents excessive stabilization of hydrogen peroxide, whereby the oxidizing agent acts to emit adequate —O2H (perhydroxy anion).
The hydrogen peroxide remaining ratio in the present invention is measured in the following manner. Measurement of hydrogen peroxide remaining ratio %: In a 50 mL screw tube are charged 20.0 mg of Compound (A) and 5.98 g of deionized water to dissolve the former in the latter. […] The point when a violet color (bluish violet to reddish violet) disappears completely is designated as a terminal point and hydrogen peroxide % is determined in accordance with the below-described equation. The amount of hydrogen peroxide in an aqueous solution obtained by diluting 10.00 of 2% aqueous hydrogen peroxide with 10.00 g of deionized water is also measured and the hydrogen peroxide amount at this time is taken as a hydrogen peroxide remaining ratio of 100%.

## NCCCN [1,3-Propanediamine]
  Hydrogen peroxide remaining ratio: 19.3%
